The values below come from US20230286970A1, “NOVEL OXADIAZOLE-BASED SELECTIVE HDAC6 INHIBITORS” (ITALFARMACO S.P.A., priority 2020, published 2023).

Assay [1] has as its target recombinant human HDAC6 (Homo sapiens (Human), UniProt Q9UBN7). Description: Enzymatic screening, HDAC6 inhibition (fluorogenic FdL_G substrate). The class given is biochemical. Summed up:
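Enzyme was preincubated with compound (8 doses, triplicate, 1% DMSO) in 25 mM Tris-HCl pH 8, 130 mM NaCl, 0.05% Tween-20, 10% glycerol, with BSA. A FLUOR DE LYS-Green substrate was then added, and fluorescence was read after developer plus 2 μM TSA.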

Assay [2] has as its target recombinant human HDAC1 (Homo sapiens (Human), UniProt Q13547). Description: Enzymatic screening, HDAC1 inhibition (fluorogenic FdL_G substrate). It counts as biochemical. Summed up: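 Recombinant human HDAC1 inhibition was measured fluorometrically using the FLUOR DE LYS-Green (FdL_G) substrate. Compounds at 8 doses (1% DMSO final) in Tris-HCl pH 8 buffer with NaCl, Tween-20 and glycerol were preincubated in triplicate with enzyme and 1 mg/mL BSA, then given substrate. Developer I plus 2 μM TSA was added, and fluorescence read after 25 minutes in the dark.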

Molecules are shown by their SMILES.

Chain of recombinant human HDAC1 (Q13547 whole entry): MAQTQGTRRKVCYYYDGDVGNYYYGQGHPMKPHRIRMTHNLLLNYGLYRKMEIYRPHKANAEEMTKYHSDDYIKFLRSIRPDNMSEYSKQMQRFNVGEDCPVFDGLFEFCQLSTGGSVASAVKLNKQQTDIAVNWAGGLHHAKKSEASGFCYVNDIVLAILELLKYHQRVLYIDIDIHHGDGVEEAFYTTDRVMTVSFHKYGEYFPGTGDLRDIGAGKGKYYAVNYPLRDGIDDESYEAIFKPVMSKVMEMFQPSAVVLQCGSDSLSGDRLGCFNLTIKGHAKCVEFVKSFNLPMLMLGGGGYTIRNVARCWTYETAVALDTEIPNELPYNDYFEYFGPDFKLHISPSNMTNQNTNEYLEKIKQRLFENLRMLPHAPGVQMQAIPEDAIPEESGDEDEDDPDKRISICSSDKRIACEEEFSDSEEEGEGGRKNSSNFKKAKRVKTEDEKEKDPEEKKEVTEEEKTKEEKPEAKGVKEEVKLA
Chain of recombinant human HDAC6 (Q9UBN7 whole entry): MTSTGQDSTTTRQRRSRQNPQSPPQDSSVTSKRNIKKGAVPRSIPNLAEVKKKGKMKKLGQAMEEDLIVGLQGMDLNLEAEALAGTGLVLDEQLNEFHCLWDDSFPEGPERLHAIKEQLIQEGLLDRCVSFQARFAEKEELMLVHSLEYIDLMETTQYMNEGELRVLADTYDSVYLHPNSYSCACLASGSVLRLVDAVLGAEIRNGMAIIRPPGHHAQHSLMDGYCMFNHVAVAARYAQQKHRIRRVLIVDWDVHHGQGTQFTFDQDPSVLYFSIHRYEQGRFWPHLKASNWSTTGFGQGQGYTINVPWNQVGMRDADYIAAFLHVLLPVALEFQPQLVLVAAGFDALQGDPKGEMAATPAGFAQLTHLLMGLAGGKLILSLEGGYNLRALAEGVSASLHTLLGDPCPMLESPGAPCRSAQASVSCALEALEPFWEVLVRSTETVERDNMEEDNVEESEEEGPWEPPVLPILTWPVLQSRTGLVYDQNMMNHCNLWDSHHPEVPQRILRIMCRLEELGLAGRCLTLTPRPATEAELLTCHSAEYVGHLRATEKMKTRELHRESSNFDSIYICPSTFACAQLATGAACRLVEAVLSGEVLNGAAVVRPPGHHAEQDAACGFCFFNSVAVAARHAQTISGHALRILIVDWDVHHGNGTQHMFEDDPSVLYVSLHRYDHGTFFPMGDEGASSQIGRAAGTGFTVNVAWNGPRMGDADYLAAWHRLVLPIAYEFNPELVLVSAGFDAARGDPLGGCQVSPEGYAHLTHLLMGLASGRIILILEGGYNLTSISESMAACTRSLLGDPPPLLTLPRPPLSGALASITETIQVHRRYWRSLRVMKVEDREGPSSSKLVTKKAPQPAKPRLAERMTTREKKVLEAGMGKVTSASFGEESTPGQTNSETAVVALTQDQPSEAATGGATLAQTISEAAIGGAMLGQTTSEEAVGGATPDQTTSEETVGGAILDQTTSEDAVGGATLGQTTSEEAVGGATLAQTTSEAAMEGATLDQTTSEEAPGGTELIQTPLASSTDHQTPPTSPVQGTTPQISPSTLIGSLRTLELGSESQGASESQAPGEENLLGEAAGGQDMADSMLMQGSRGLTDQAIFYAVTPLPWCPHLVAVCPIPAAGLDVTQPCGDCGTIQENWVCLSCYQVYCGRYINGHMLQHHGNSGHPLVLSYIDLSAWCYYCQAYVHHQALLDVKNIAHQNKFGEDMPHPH

In the case of `CCCCC(c1ccc(-c2nnc(C(F)F)o2)cc1)n1cc(-c2cccc(NC(=O)N3CCOCC3)c2)nn1` (stereo not drawn) [compound 244, N-(3-(1-(1-(4-(5-(difluoromethyl)-1,3,4-oxadiazol-2-yl)phenyl)pentyl)-1H-1,2,3-triazol-4-yl)phenyl)morpholine-4-carboxamide], the IC50 (in general, the midpoint of a concentration-inhibition curve) in assay [1] was 240 nM; in assay [2], above 200 µM.

Regarding `FC(F)c1nnc(-c2ccc(Cn3cc(-c4cccs4)nn3)nc2)o1` [compound 85, 2-(difluoromethyl)-5-(6-((4-(thiophen-2-yl)-1H-1,2,3-triazol-1-yl)methyl)pyridin-3-yl)-1,3,4-oxadiazole], the results for the IC50 in assay [1] and in assay [2] were 33 nM and above 200 µM, respectively.

Consider `Nc1nccc2cc(-c3nnn(Cc4ccc(-c5nnc(C(F)F)o5)cc4Cl)n3)ccc12` [compound 422, 6-(2-(2-chloro-4-(5-(difluoromethyl)-1,3,4-oxadiazol-2-yl)benzyl)-2H-tetrazol-5-yl)isoquinolin-1-amine], for which the IC50 in assay [1] was determined as 249 nM; in assay [2], 1000 µM.

For `Nc1ccc(-c2cn([C@@H](CN3CCCC3)c3ccc(-c4nnc(C(F)F)o4)cc3)nn2)cn1` [compound 312, 5-[1-[(1R)-1-[4-[5-(difluoromethyl)-1,3,4-oxadiazol-2-yl]phenyl]-2-pyrrolidin-1-ylethyl]triazol-4-yl]pyridin-2-amine], the IC50 is 41 nM in assay [1] and above 1000 µM in assay [2].

In the case of `O=C1Nc2ccc(-c3nnn(Cc4ccc(-c5nnc(C(F)F)o5)cc4)n3)cc2NC12CCCC2` [compound 110, 7′-(2-(4-(5-(difluoromethyl)-1,3,4-oxadiazol-2-yl)benzyl)-2H-tetrazol-5-yl)-1′,4′-dihydro-3′H-spiro[cyclopentane-1,2′-quinoxalin]-3′-one], the IC50 in assay [1] is 42 nM; in assay [2], above 200 µM.

`Nc1nc2ccc(-c3cn(Cc4ccc(-c5nnc(C(F)F)o5)c(F)c4)nn3)cc2s1` [compound 347, 6-[1-[[4-[5-(difluoromethyl)-1,3,4-oxadiazol-2-yl]-3-fluorophenyl]methyl]triazol-4-yl]-1,3-benzothiazol-2-amine]: the figures for the IC50 in assay [1] and in assay [2] were 27 nM and above 1000 µM, respectively.

Regarding `O=c1[nH]c2cc(-c3nnn(Cc4ccc(-c5nnc(C(F)F)o5)cc4)n3)ccc2o1` [compound 225, 5-(2-(4-(5-(difluoromethyl)-1,3,4-oxadiazol-2-yl)benzyl)-2H-tetrazol-5-yl)benzo[d]oxazol-2 (3H)-one], the IC50 is 169 nM in assay [1] and above 200 µM in assay [2].

Turning to `FC(F)c1nnc(-c2cnc(Cn3nnnc3-c3cccs3)nc2)o1` [compound 299, 2-(difluoromethyl)-5-(2-((5-(thiophen-2-yl)-1H-tetrazol-1-yl)methyl)pyrimidin-5-yl)-1,3,4-oxadiazole], the IC50 in assay [1] is 110 nM; in assay [2], above 200 µM.

Consider `Nc1ccc(-c2cn(C(Cc3ccccc3)c3ccc(-c4nnc(C(F)F)o4)cc3)nn2)cn1` (stereo not drawn) [compound 221, 5-(1-(1-(4-(5-(difluoromethyl)-1,3,4-oxadiazol-2-yl)phenyl)-2-phenylethyl)-1H-1,2,3-triazol-4-yl)pyridin-2-amine], for which the IC50 is 157 nM in assay [1] and above 200 µM in assay [2].

Consider `CCC[C@@H](c1ccc(-c2nnc(C(F)F)o2)cc1)n1cc(-c2cccc(NC(=O)N3CCOCC3)c2)nn1` (stereo in doubt) [compound 205, N-(3-(1-(1-(4-(5-(difluoromethyl)-1,3,4-oxadiazol-2-yl)phenyl)butyl)-1H-1,2,3-triazol-4-yl)phenyl)morpholine-4-carboxamide], for which the IC50 in assay [1] was 122 nM; in assay [2] it was above 200 µM.

As to `Nc1nc2ccc(-c3cnn(Cc4ccc(-c5nnc(C(F)F)o5)cc4)c3)cc2s1` [compound 326, 6-(1-(4-(5-(difluoromethyl)-1,3,4-oxadiazol-2-yl)benzyl)-1H-pyrazol-4-yl)benzo[d]thiazol-2-amine], the IC50 is 219 nM in assay [1] and above 1000 µM in assay [2].

Regarding `Cn1c(N)nc2cc(-c3cn(Cc4ccc(-c5nnc(C(F)F)o5)cc4F)nn3)ccc21` [compound 378, 5-[1-[[4-[5-(difluoromethyl)-1,3,4-oxadiazol-2-yl]-2-fluorophenyl]methyl]triazol-4-yl]-1-methylbenzimidazol-2-amine], the IC50 was 17 nM in assay [1] and 199 µM in assay [2].

Consider `NC(=O)c1cccc(-c2nnn(Cc3c(F)cc(-c4nnc(C(F)F)o4)cc3F)n2)c1` [compound 54, 3-(2-(4-(5-(difluoromethyl)-1,3,4-oxadiazol-2-yl)-2,6-difluorobenzyl)-2H-tetrazol-5-yl)benzamide], for which the IC50 in assay [1] is 23 nM; in assay [2] it was above 200 µM.

As for `Nc1cccc(-c2nnn(Cc3ccc(-c4nnc(C(F)F)o4)cc3)n2)c1` [compound 129, 3-[2-[[4-[5-(difluoromethyl)-1,3,4-oxadiazol-2-yl]phenyl]methyl]tetrazol-5-yl]aniline], the IC50 in assay [1] is 50 nM; in assay [2] it was above 200 µM.

Turning to `Nc1ccc(-c2ncc(Cc3ccc(-c4nnc(C(F)F)o4)cc3)o2)cc1` [compound 330, 4-(5-(4-(5-(difluoromethyl)-1,3,4-oxadiazol-2-yl)benzyl)oxazol-2-yl)aniline], the figures for the IC50 in assay [1] and in assay [2] were 465 nM and above 1000 µM, respectively.

Take `O=C1Nc2cc(-c3nnn(Cc4ccc(-c5nnc(C(F)F)o5)cc4)n3)ccc2NC12CCCC2` [compound 195, 6′-(2-(4-(5-(difluoromethyl)-1,3,4-oxadiazol-2-yl)benzyl)-2H-tetrazol-5-yl)-1′,4′-dihydro-3′H-spiro[cyclopentane-1,2′-quinoxalin]-3′-one]: the IC50 is 104 nM in assay [1] and above 200 µM in assay [2].

For the molecule `CCNc1ncc2cc(-c3cn(Cc4cc(F)c(-c5nnc(C(F)F)o5)cc4F)nn3)ccc2n1` [compound 394, 6-[1-({4-[5-(difluoromethyl)-1,3,4-oxadiazol-2-yl]-2,5-difluorophenyl}methyl)-1H-1,2,3-triazol-4-yl]-N-ethylquinazolin-2-amine], the values for the IC50 in assay [1] and in assay [2] were 264 nM and 1000 µM, respectively.

As for `NCc1ccc(-c2nc(Cc3c(F)cc(-c4nnc(C(F)F)o4)cc3F)no2)cc1` [compound 100, (4-(3-(4-(5-(difluoromethyl)-1,3,4-oxadiazol-2-yl)-2,6-difluorobenzyl)-1,2,4-oxadiazol-5-yl)phenyl)methanamine], the IC50 in assay [1] is 39 nM; in assay [2] it was above 200 µM.

Regarding `[2H]C([2H])(c1ccc(-c2nnc(C(F)F)o2)cc1)n1cc(-c2cccc(NC(=O)N3CCOCC3)c2)nn1` [compound 352, N-[3-[1-[dideuterio-[4-[5-(difluoromethyl)-1,3,4-oxadiazol-2-yl]phenyl]methyl]triazol-4-yl]phenyl]morpholine-4-carboxamide], the concentration for half-maximal inhibition (IC50) in assay [1] was 60 nM; in assay [2], above 1000 µM.

As for `Nc1nc2cc(-c3cn(Cc4ccc(-c5nnc(C(F)F)o5)cn4)cn3)ccc2s1` [compound 322, 5-[1-[[5-[5-(difluoromethyl)-1,3,4-oxadiazol-2-yl]pyridin-2-yl]methyl]imidazol-4-yl]-1,3-benzothiazol-2-amine], the IC50 in assay [1] is 17 nM; in assay [2], above 1000 µM.

For `CCNc1ccc2cc(-c3nnn(Cc4ccc(-c5nnc(C(F)F)o5)c(F)c4)n3)ccc2n1` [compound 410, 6-(2-(4-(5-(difluoromethyl)-1,3,4-oxadiazol-2-yl)-3-fluorobenzyl)-2H-tetrazol-5-yl)-N-ethylquinolin-2-amine], the IC50 turned out to be 348 nM in assay [1] and 1000 µM in assay [2].
